Assay results taken from patent US20250281584A1, “ACTIVE VACCINATION FOR THE TREATMENT OF NGF-RELATED DISORDERS” (priority 2024, published 2025).

What was measured:
[1] = system: kaolin-induced inflammation in the hind paw; experiment: Kaolin model of acute inflammatory pain, lameness score; format: in vivo, dog
Procedure: Kaolin-induced inflammation in the hind paw was performed based on the model described in “Paw inflammation model in dogs for preclinical pharmacokinetic/pharmacodynamic investigations of nonsteroidal anti-inflammatory drugs” (Jeunesse et al., 2011, J Pharmacol Exp Ther., 338 (2): 548-58). Briefly, the dogs were anaesthetized with an intravenous administration of propofol (Propovet, 6.5 mg/kg, Zoetis, France) and kaolin was injected subcutaneously on one paw. On D42, the injections were performed on the right hind paw of all dogs.
Lameness score was assessed on a typical course made by each dog using a numerical rating scale initially developed by Giraudel et al. (Giraudel J M et al., 2005, Br J Pharmacol 146:642-653; Giraudel J M et al., 2005, J Vet Pharmacol Ther 28:275-285) on cats and adapted by Jeunesse et al. (Jeunesse et al., 2011, J Pharmacol Exp Ther., 338 (2): 548-58). […] Lameness score was assessed on live and separately on videos by a different operator. […]

[2] = Ionic strength/salt stability of VLPs in NaCl, native agarose gel electrophoresis; format: physicochemical; conditions: NaCl concentrations up to 0.4 M, room temperature, 0.5 mg/ml, pH 7.5
Procedure: FIG. 12: Stability of CMV-Ntt830 VLPs and CMV-Ntt830-E4 VLPs in solution in the presence of different NaCl concentrations. Samples of CMV-Ntt830 VLPs and CMV-Ntt830-E4 VLPs at 0.5 mg/ml were incubated at room temperature in 5 mM Na phosphate, 2 mM EDTA, pH 7.5 with different concentrations of NaCl (the molar concentration of NaCl in each sample is indicated at the bottom of the gels) for up to 2 hours. Samples were analysed by native agarose gel electrophoresis and ethidium bromide staining. Panels A and B show NAGE analysis of CMV-Ntt830 VLP and CMV-Ntt830-E4 VLPsamples respectively. […] Black arrows indicate the position of loading wells within the gels and location of VLPs within the wells and gels. The presence of CMV-Ntt830 VLPs in the loading wells after electrophoresis (panel A) is due to the formation of VLP aggregates which are too large to enter the gel. Integral unaggreagted VLPs migrated into the gel.
The relative stabilities of CMV-Ntt830 VLPs and CMV-Ntt830-E4 VLPs to NaCl were tested by incubating purified VLPs (0.5 mg/ml in 5 mM Na phosphate, 2 mM EDTA, pH 7.5) at room temperature with various NaCl concentrations.

[3] = Processability of VLPs by anion exchange chromatography (aggregation by NAGE); format: physicochemical; conditions: DEAE resin, pH 9.0, NaCl elution
Procedure: To test the processability of prior art CMV-Ntt830 VLPs with anion exchange chromatography (AEX), sucrose gradient purified VLPs were prepared as described in Examples 2-4 of WO2016/062720A1. Five mls of CMV-Ntt830 VLPs (1 mg/ml) were buffer exchanged into 5 mM sodium borate pH 9 and loaded onto a 1.0 ml Macro-Prep DEAE Bio-Rad anion exchange cartridge equilibrated with the same buffer. After the loading step, the concentration of NaCl in the elution buffer was increased in step-wise manner (0.1, 0.2, 0.3, 0.4, 0.5, 0.8., 1.0 and 2.0 M). Fractions were collected and measured at 260 nm using Nanodrop spectrophotometer to measure protein and subjected to native agarose gel electrophoresis (NAGE).
In contrast, non-aggregated CMV-Ntt830-E4 VLPs could be readily purified from a crude lysate using AEX. Clarified lysate prepared from E. coli expressing CMV-Ntt830-E4 VLPs (as described in Example 1) in 50 mM citrate, 5 mM Borate buffer pH 9.0 was loaded onto 60 ml of Fracto-DEAE (Merck) in an XK 26/20 column equilibrated with the same buffer and eluted by applying a continuous NaCl gradient from 0 to 1.0 M in the same buffer. The eluate was monitored at A260 nm to measure protein and conductivity measured to monitor salt concentration. The clarified lysate, flow-through and fractions were collected and subjected to NAGE and SDS-PAGE.

[4] = Thermal shift assay with SYPRO Orange (thermal stability of VLPs); format: physicochemical; conditions: 0.5 mg/ml VLPs in 5 mM Na phosphate, 2 mM EDTA, pH 7.5, real-time PCR system
Procedure: A thermal shift assay involving temperature-induced denaturation and the fluorescent dye SYPRO® Orange (Sigma, Saint Louis, USA) was used for this purpose. The dye is a naturally quenched in solution but as the VLPs denature with increasing temperatures, SYPRO® Orange interacts with exposed hydrophobic amino acids and cores and emits a fluorescent signal, which is measured by fluorometry. From the resultant melting curve (fluorescent signal vs temperature), the melt peak curves and melting temperature were determined. Solutions containing 0.5 mg/ml of sucrose density gradient purified (as described in Example 1 above) CMV-Ntt830 VLPs or CMV-Ntt830-E4 VLPs in 5 mM Na phosphate, 2 mM EDTA, pH 7.5 were assayed with a real-time PCR system MJ Mini (Bio-Rad, Hercules, USA) using a DNA melting point determination program. Data were analysed using Opticon Monitor Software and melting curves processed at a smooth setting of four.

human beta-NGF = human beta-NGF (Homo sapiens, UniProt P01138); experiment: TF-1 cell based NGF neutralization bioassay, kaolin study
Procedure: (§1) The range of the actual doses of bedinvetmab administered was 0.52-0.97 mg/kg in line with the product information of the marketing authorization. • For the Vaccine group, the dogs received the inventive vaccine candidate, cNGF-CMV-Ntt830-E4 VLP, twice subcutaneously at the back of the neck on day 0 (DO) and day 21 (D21) at the dose of 250 μg VLP-NGF/dog.
Heat-inactivated (56° C. 30 min), serial-diluted sera or antibody standard (canonized monoclonal anti-canine NGF antibody bedinvetmab, Zoetis) were incubated with 5 ng/mL human beta-NGF for 1 hour at room temperature. The NGF-sera/antibody solution was then added to […] starved overnight of growth factors. Cell viability was quantified over the last 7 hour period of a total 72 hour incubation period using the CellTiter 96 AQueous One Solution Cell Proliferation Assay reagent (Promega). Absorbance was measured using a microplate reader (TecanSpark) at a wavelength of 490 nm and a reference wavelength of 700 nm. Titration curves were generated by plotting the difference in absorbance (490 nm-700 nm) versus the dilution factor of the serum sample. Using a 4-Parameter logistic regression curve fit model the IC50 values, the dilution factor corresponding to half maximum OD values, were determined. Serum titers of samples at different time points were defined and depicted as the IC50 values of the curve fit. […]

[5] = in vivo; cited from earlier work
canine NGF protein [6] = experiment: NGF total IgG ELISA in dog sera, kaolin study (Example 7); format: in vivo; conditions: study day 42; vaccine 250 μg s.c. D0 and D21; bedinvetmab s.c. once D35
Procedure: as §1
Blood samples for serology were collected at the following time points on DO, D21, D70, D84, D105 and D119 for the Vaccine and the Placebo groups only, on D35 for the Librela® group only, on D42 and on D56 for the three group. Blood samples were centrifuged and the serum decanted into three aliquots per sample.
NGF- and cNGF-CMV-Ntt830-E4 VLP total specific IgG antibodies in sera were measured by ELISA. ELISA plates were coated with recombinantly produced canine NGF protein (1.0 μg/mL) or cNGF-CMV-Ntt830-E4 VLP (2.0 μg/mL). Serum samples were pre-diluted 1:100, transferred to the ELISA plates and subjected to serial dilutions 3-fold serial dilution steps with a total of 11 dilutions being tested per serum sample. […] Relative concentrations of anti-NGF IgG antibody in the serum (μg/mL) were calculated by multiplying the EC50 values of the serum with the EC50 values determine for the Bedinvetmab standard. […]

hNGF binding to TrkA = target: T1, hNGF binding to TrkA (Homo sapiens, UniProt P01138); experiment: TrkA based NGF binding ELISA, ACLT+PMM study; format: biochemical; conditions: day 203, group B, 6 days after administration
T1 construct: 5 ng/ml human mature NGF (R&D, 256-GF-100/CF); purchased R&D (hNGF); SinoBio (TrkA) 256-GF; 11073-H08H
Procedure: ELISA plates were coated with 100 μL/well of 0.5 μg/mL TrkA (SinoBio 11073-H08H) in PBS over night at +4° C. After washing with PBST, plates were blocked using 200 μL/well SuperBlock (ThermoScientific 37518) for 1 hour at room temperature. Serum samples or positive control antibody (caninized monoclonal anti-canine NGF antibody bedinvetmab, Zoetis) were diluted in 2% BSA/PBST and incubated with 1.25 ng/ml hNGF (R&D 256-GF) for 1 hour. After washing the ELISA plates, serum/NGF solution was added to the plates. Plates were incubated for 1 hour at room temperature, washed and HRP-labelled rabbit anti-NGF antibody (SinoBio 11050-RP02-H) at a concentration of 1.5 μg/mL was added. After the plates were washed 4 times with 1×PBS/0.05% (v/v) Tween 20, TMB substrate (ThermoScientific 3401) as the HRP substrate and development reaction was stopped by addition of 2M H2SO4. OD values at 450 nm were measured using a microplate reader (TecanSpark). […] Using a 4-Parameter logistic regression curve fit model the IC50 values, the dilution factor corresponding to half maximum OD 450 nm values, were determined. […] Relative concentrations of neutralizing antibody in the serum (μg/mL) were calculated by multiplying the IC50 values of the serum with the IC50 values determine for the bedinvetmab standard (μg/mL). […]

canine NGF protein [7] = experiment: NGF total IgG ELISA in dog sera, ACLT+PMM chronic pain study (Example 8); format: in vivo; conditions: day 203 sera, group B, monthly s.c. administration
Procedure: NGF- and cNGF-CMV-Ntt830-E4 VLP total specific IgG antibodies in sera were measured by ELISA. ELISA plates were coated with recombinantly produced canine NGF protein (1.0 μg/mL) or cNGF-CMV-Ntt830-E4 VLP (2.0 μg/mL). Serum samples were pre-diluted 1:100, transferred to the ELISA plates and subjected to serial dilutions 3-fold serial dilution steps with a total of 11 dilutions being tested per serum sample. Following incubation, horse-radish peroxidase-(HRP-) labelled goat anti-dog IgG (Jackson ImmunoResearch, cat no 304-035-008, lot 156911) was added. After 2 hours incubation at room temperature, the plates were washed 4 times with 1×PBS/0.05% (v/v) Tween 20. […] Serum titers of samples at different time points were defined and depicted as the EC50 values of the curve fit. Titers below the detection limit of the assay were set to 100 for anti-CMV IgG respectively 50 for anti-NGF IgG, half of the lowest dilution factor (1:200 respectively 1:100) used in the assay. Bedinvetmab was used as a standard in the NGF IgG ELISA. Relative concentrations of anti-NGF IgG antibody in the serum (μg/mL) were calculated by multiplying the EC50 values of the serum with the EC50 values determine for the Bedinvetmab standard. Neutralization titers below the detection limit of the assay were set the equivalent monoclonal antibody concentration of the EC50 value of 50. […]

PC12 cells = experiment: Neurite outgrowth bioassay for authenticity of recombinant NGF; format: cell-based; conditions: 5 days, 6.25-100 ng/ml NGF
Procedure: FIG. 15B: PC12 cells were grown for 5 days with recombinant human mature NGF produced in mouse myeloma cells (R&D systems) (black squares) or with canine mature NGF produced in E. coli as described herein (grey circles). Cells were grown in the presence of 100, 50, 25, 12.5 and 6.25 ng/ml of recombinant NGF and the percentage of cells with defined neurite outgrowth determined.

human beta-NGF, sequence (P01138 122-241): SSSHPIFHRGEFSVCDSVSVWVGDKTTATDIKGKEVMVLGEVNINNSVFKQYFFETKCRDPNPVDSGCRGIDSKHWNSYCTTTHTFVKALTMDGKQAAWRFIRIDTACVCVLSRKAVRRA
T1 sequence (P01138 122-241): as above

Molecule: Cc1cnc(NC(=O)C2=C(O)c3ccccc3S(=O)(=O)N2C)s1 [Inflacam®, meloxicam]
- mean lameness score as compared to the Placebo group ([1]; one day after kaolin-induced inflammation, 0.2 mg meloxicam/kg s.c. D43): reduced

Molecule: CMV-Ntt830-E4 VLPs: modified CMV VLP of chimeric CMV polypeptide SEQ ID NO:10, four glutamic acid residues (E4) inserted into CMV-Ntt830
- aggregate formation in presence of NaCl [2]: no evidence of aggregate formation
- aggregated VLPs after anion exchange chromatography (NAGE loading wells) [3]: no evidence of aggregated VLPs
- melting temperature (melting point) [4]: ~57 °C

Molecule: bedinvetmab
- peak NGF neutralizing titers (human beta-NGF; study day 42, study group 1): 3.93 µg/mL
- dogs with levels below the detection limit of the TF-1-based NGF neutralization assay (human beta-NGF; study day 56, 21 days after administration): 6 of 7
- mean titers (dashed line FIG. 24B) [5]: 1 µg/mL
- peak antibody titer in serum after administration of bedinvetmab [5]: 6.1 µg/mL
- mean AUC for lameness scores ([1]; 14 days post kaolin challenge, 7 dogs/group): 15.36
- NGF-specific IgG GMT (standard equivalent concentration), peak (canine NGF protein [6]): 3.68 µg/mL
- NGF neutralizing antibody titers (hNGF binding to TrkA): 7.85 µg/mL
- NGF-specific IgG GMT (canine NGF protein [7]): 10.9 µg/mL

B1: canine mature NGF: recombinant canine mature NGF (SEQ ID NO:30) produced in E. coli, with C-terminal GCG motif (SEQ ID NO:31) or His-tag (SEQ ID NO:33) (protein)
chain: SSSHPVFHRGEFSVCDSVSVWVGDKTTATDIKGKEVMVLGEVNINNSVFKQYFFETKCRDPTPVDSGCRGIDSKHWNSYCTTTHTFVKALTMDGKQAAWRFIRIDTACVCVLSRKAGRRAG
modifications: C-terminal GCG motif or His-tag
- activity at inducing neurite outgrowth compared with commercial mature NGF (R&D systems) (PC12 cells): similarly active
